Experimental data reported in patent publication US20230416257A1, “TOLL-LIKE RECEPTOR AGONIST” (priority 2020, published 2023).

Tested on: antigen-specific T cells in the draining lymph nodes (LN) and spleen
Assay: A/Vic murine vaccine model: cytokine secretion by antigen-stimulated T cells
Format: in vivo
Settings: immunized mice, 5 days after tertiary immunization (day 33); comparison of UM-2014 and UM-1007; FIG. 4
Procedure: The adjuvanticity of liposomal formulations of UM-2014 (1 and 10 μg doses) was evaluated in an A/Vic murine vaccine model. Mice were intramuscularly immunized at day 0, 14, and 28, with blood collection at day 14 and day 28 (14dp1 and 14dp2, respectively). A tertiary immunization at day 28 was administered to assess cytokine production of antigen-specific T cells in the draining lymph nodes (LN) and spleen 5 days later (day 33).

CCCCCCCCCCCCCCCC(=O)OC[C@H](COCCOCCOCCOP(=O)(O)OCCN1CCC(Cn2c(O)nc3c(N)nc(O[C@@H](C)CCC)nc32)CC1)OC(=O)CCCCCCCCCCCCCCC [UM-1007]
cytokine secretion by antigen-stimulated T cells from draining LNs and spleen: very similar
